From patent US11534449B2, “Tricin derivatives and compositions thereof for cancer treatment” (NEOCAGE SL, priority 2019, dated 2022)
Entries after “also recorded” stand apart in the source; their conditions may differ. Blank lines part the entries; values can stand above or below the compound they belong to.

How the values were obtained:
[1] = system: CT26 cells; assay: Murine CRC model (CT26 cells) in BALB/c mice, combination with AdIL-12 gene therapy; type: in vivo, mouse; conditions: mice with regression/mice in group; ANTARTINA 50 mg/kg 3 doses per week; AdIL12 10^9 TCID50 intratumorally, one dose at day 15
Excerpt: Mouse CT26 cells (5×10^5) were subcutaneously inoculated on day 0. On day 7, when tumors reached a diameter of 5-7 mm, animals were divided into 4 groups: saline, ANTARTINA®, AdIL12, and the combination of ANTARTINA® and AdIL-12. Tumor volume is shown in the left panel vs. days after CT26 inoculation. Excised tumors are depicted in the right panel.
Adenovirus IL-12 constructs are as previously reported. (Mazzolini et al., Cancer Gene Therapy, 6(6):514-522, 1999).
This is a murine model of CRC (CT26 cells) established in BALB/c mice. Mouse CT26 cells (5×10^5) were subcutaneously inoculated on day 0. On day 7, when tumors reached a diameter of 5-7 mm, animals were divided into 4 groups: saline, ANTARTINA® 50 mg/kg, 3 doses per week (systemically), AdIL12 (adenovirus encoding murine IL-12, dose: 10^9 TCID50, intratumorally, one dose at day 15 after tumor inoculation), and the combination of ANTARTINA® and AdIL-12. Tumor volume was measured with a caliper 3 times per week. […] Complete tumor regressions: saline […], AdIL-12 1/5, Antartina 2/5, and combined therapy: 4/5. (FIG. 6).

[2] = system: CRC; assay: Cytotoxic T lymphocyte (CTL) assay; type: cell-based
Excerpt: (§1) In colorectal carcinoma (CRC) patients, distant metastatic disease is present at initial diagnosis in nearly 25% of patients. The majority of patients with metastatic CRC have an incurable disease; therefore, new therapies are needed to address this cancer. […] ANTARTINA® is an antitumor agent isolated from Deschampsia antarctica Desv. In that study, the aim was to evaluate the antitumor properties of ANTARTINA® in CRC models. Human and murine CRC cell lines were employed to investigate proliferation, apoptosis, and cell cycle effects of ANTARTINA® therapy in vitro. Immune response of ANTARTINA® against cancer cells in the CRC model was also investigated using a cytotoxic T lymphocyte (CTL) assay, analyzing dendritic cell activation and intratumor T cell sub-population, and by tumor re-challenge experiments.

[3] = system: dendritic cell; assay: Dendritic cell activation; type: cell-based
Excerpt: as §1

[4] = system: CRC; assay: Immunocompetent CRC mouse model; type: in vivo
Excerpt: as §1

[5] = system: human CRC cell; assay: In vitro human CRC cell proliferation; type: cell-based
Excerpt: as §1

[6] = system: CT26 cells; assay: Subcutaneous CRC model, CT26 cells in BALB/c mice; type: in vivo, mouse; conditions: 50 mg/kg i.p., 3 times per week over 3 weeks; s.c. CT26 tumors in BALB/c mice; compared with ANTARTINA and tricin
Excerpt: FIG. 4 depicts cell size (mm^3) in mice of CT26 tumors after CT26 cell line injection into mice. […] The bottom panel provides a summary of all results in one graph.
Mouse CT26 tumor cell line, an undifferentiated murine colorectal carcinoma (CRC) cell line established from N-nitroso-N-methylurethan-induced transplantable tumor in BALB/c (H-2d) mice, BNL cells (an hepatoma cell line) were used in the studies below and can be obtained from the University of Navarra, Spain. Human cell lines were from American Type Culture Collection (ATCC, Manassas, Va., US), including LoVo (ATCC-CCL229), ASG (ATCC-CCRL-79) and lung fibroblast Wi38 (ATCC-CCL75). All lines were tested for mycoplasma and cultured in complete DMEM (GIBCO, Themo Fisher Scientific, mM glutamine, 100 U/mL penicillin, […] streptomycin, and 10% heat inactivated fetal bovine serum (FBS, GIBCO, Thermo Fisher Scientific) and incubated 37° C. in 5% CO2.
Subcutaneous CRC model: Six-to-eight-week-old male BALB/c mice were used. CT26 cells were injected at a dose of 5×10^5 cells subcutaneously (s.c.) into the right flank of BALB/c mice (day 0). Tumors were allowed to reach ^˜90 mm^3 in size before treatment. […] Tumor growth was assessed by caliper measurement. Tumor volume was calculated using the following formula: tumor volume (mm^3)=length×(width) 2/2.

[7] = system: Hepa129 cells; assay: Orthotopic hepatocellular carcinoma model associated with fibrosis, Hepa129 cells in C3H/He mice; type: in vivo, mouse; conditions: 50 mg/kg, 3 times per week from day 5; quantified fifteen days after tumor implantation; vs saline
Description: On day 28, mice were anesthetized and orthotopic tumors were established by sub-capsular inoculation of 1.25×10^5 Hepa129 cells into the left liver lobe by laparotomy (day 0). Five days after tumor implantation, mice were distributed in groups (n=6-8/group) and received: i) saline (control, FIG. 5A, left panel); ii) acetylated ANTARTINA® (50 mg/kg, 3 times per week, FIG. 5A, right panel). Fifteen days after tumor implantation, mice were sacrificed and tumor volume was quantified, as depicted in FIG. 5B (control, left panel; acetylated ANTARTINA®, right panel).
Experimental model of HCC associated with fibrosis: C3H/He mice were treated intraperitoneally (i.p) with 200 mg/kg of thioacetamide (TAA) (Sigma-Aldrich, St. Louis, USA) 3 times a week for 4 weeks. On day 28, mice were anesthetized and orthotopic tumors were established by sub-capsular inoculation of 1.25×10^5 Hepa129 cells into the left liver lobe by laparotomy (day 0). Five days after tumor implantation, mice were distributed in groups (n=6-8/group) and received: i) saline (control); ii) acetylated ANTARTINA® (50 mg/kg, 3 times per week). (See, FIG. 5A). Fifteen days after tumor implantation, mice were sacrificed and tumor volume was quantified. (See, FIG. 5B).

Structure (SMILES): COc1cc(-c2cc(=O)c3c(O)cc(O[C@@H]4O[C@H](CO)[C@@H](O)[C@H](O)[C@H]4O)cc3o2)cc(OC)c1O [ANTARTINA®, tricin 7-O-β-D-glucopyranoside]
complete tumor regressions [1]: 2/5 | specific cytotoxic T cell response against CRC [2]: induced a potent specific cytotoxic T cell response | dendritic cell activation [3]: stimulated dendritic cell activation | toxic effects ([4]; at the doses employed): No toxic effects were observed | animal survival rate ([4]; mouse, in vivo): increased | complete tumor regressions ([4]; mouse, in vivo): > 30 % of mice | tumor growth and liver metastases ([4]; mouse, in vivo): potently inhibited | tumor immunogenicity ([4]; mouse, in vivo): increased tumor immunogenicity | antitumor immunity (tumor re-challenge) ([4]; tumor re-challenge experiments): long lasting antitumor immunity | in vitro human CRC cell proliferation [5]: inhibits

Structure (SMILES): COc1cc(-c2cc(=O)c3c(O)cc(O[C@@H]4O[C@H](COC(C)=O)[C@H](OC(C)=O)[C@H](OC(C)=O)[C@H]4OC(C)=O)cc3o2)cc(OC)c1O (stereo in doubt)
melting point: 117.2 to 121.8 °C

Structure (SMILES): COc1cc(-c2cc(=O)c3c(OC(C)=O)cc(O[C@@H]4O[C@H](COC(C)=O)[C@@H](OC(C)=O)[C@H](OC(C)=O)[C@H]4OC(C)=O)cc3o2)cc(OC)c1OC(C)=O [acetylated ANTARTINA®, Tricin 7-O-β-D-glucopyranoside, Per Acetylated]
tumor size (antitumoral effect) [6]: superior antitumoral effect in comparison with native ANTARTINA®; also recorded: clearly and markedly reduced tumor size at a higher rate than observed for any of the other tested agents | melting point: 239.1 to 241.8 °C | tumor volume [7]: markedly reduced the tumor volume

Structure (SMILES): COc1cc(-c2cc(=O)c3c(O)cc(O[C@@H]4O[C@H](CO)[C@@H](O[C@@H]5O[C@H](CO)[C@@H](O)[C@H](O)[C@H]5O)[C@H](O)[C@H]4O)cc3o2)cc(OC)c1O (stereo in doubt)
melting point: 243.2 to 246.5 °C

The next lines start with the values.

melting point: 260.2 to 263.3 °C
Structure (SMILES): COc1cc(-c2cc(=O)c3c(O)cc(O[C@@H]4O[C@H](CO)[C@H](O)[C@H](O)[C@H]4O)cc3o2)cc(OC)c1O (stereo in doubt)

melting point: 275.4 to 279.2 °C
Structure (SMILES): COc1cc(-c2cc(=O)c3c(O)cc(O[C@@H]4O[C@H](CO)[C@@H](O[C@@H]5O[C@H](CO)[C@H](O)[C@H](O)[C@H]5O)[C@H](O)[C@H]4O)cc3o2)cc(OC)c1O (stereo in doubt)
